{"source": "patent US20090028920A1", "about": "“UROLOGICAL DEVICES INCORPORATING COLLAGEN INHIBITORS” (Wake Forest University Health Sciences, priority 2006, published 2009)", "key": {"[1]": {"conditions": "rat, in vivo", "procedure": "HF Analysis in Local Tissues and Serum (in Rat): The tissue specimens were morcellated, incubated for 24 hours in 40 mL of PBS, centrifuged, and a sample was taken for HF concentration analysis via spectrophotometry. Blood was also drawn (1 mL) from the heart post-mortem, added to 5 mL of PBS, centrifuged, and the serum analyzed for HF concentration via spectrophotometry."}, "[2]": {"tested_on": "ureter and urethra", "conditions": "orally administered and locally injected; cited from earlier work"}, "[3]": {"experiment": "Drug release study of coated stents in PBS (UV spectroscopy at 243 nm)", "assay_type": "physicochemical", "conditions": "approx. 3 cm coated silicone stents, room temperature, 24-hour intervals", "procedure": "Drug release studies were then performed to determine the amount of halofuginone released by the coated stents, and the timing of drug release. Stents approximately 3 cm in length were coated with halofuginone using our proprietary technique. These stents were then placed in PBS solution at room temperature for 24-hour intervals. After each 24-hour interval, the stents were placed in a new PBS solution, and the previous solution was analyzed for halofuginone concentration using UV spectroscopy (absorption at 243 nm). This process was continued daily until the amount of halofuginone in the PBS dropped to immeasurable levels."}, "[4]": {"conditions": "oral doses of up to 3.5 mg/day; cited from earlier work"}}, "data": [{"compound": "O=C(CC1NCCCC1O)Cn1cnc2cc(Br)c(Cl)cc2c1=O", "note": "(centres unmarked) [halofuginone, 7-bromo-6-chloro-3-[3-(3-hydroxy-2-piperidinyl)-2-oxopropyl]-4(3H)]", "values": [{"measurement": "difference between HF levels in serum vs penile tissue", "setting": "[1]", "value": "almost a ten-fold difference"}, {"measurement": "collagen deposition and stricture formation", "setting": "[2]", "value": "prevent collagen deposition and stricture formation"}, {"measurement": "duration of sustained release of halofuginone from the stents", "setting": "[3]", "value": "approximately 4 days"}, {"measurement": "release profile", "setting": "[3]", "value": "large burst release the first 24 hours"}, {"measurement": "tolerability", "setting": "[4]", "value": "minimal ill effects"}]}]}
